Results on one compound are retold here after patent publication US20160368943A1, “SUBSTITUTED PURINE COMPOUNDS” (EPIZYME, INC., priority 2013, published 2016).

The structures appear in SMILES notation.

The nature of data set [1]: Liver microsome stability, mouse. The data set is classed as in vitro ADME. How it is done:
(§1) The final incubation volume was 50 μL. Control incubations were included for each species where 0.1 M phosphate buffer pH 7.4 was added instead of NADPH (minus NADPH). Two control compounds were included for each species. […] The control (minus NADPH) was incubated for 45 minutes only. The reactions were stopped by transferring 25 μL of incubate to 50 μL methanol at the appropriate time points. The incubation plates were centrifuged at 2,500 rpm for 20 minutes at 4° C. to aid protein precipitation. Experimental half-lives were transformed to the corresponding intrinsic clearance values and subsequently scaled to predicted in vivo clearance values, using the well-stirred model as previously described (Houston, Biochemical Pharmacology 47(9): 1469-1479, 1994; Obach, Drug Metabolism and Disposition 27(11): 1350-1359, 1999), with appropriate species-specific scaling factors (Barter et al., Current Drug Metabolism 8(1): 33-45, 2007).
In general terms: Microsomes from liver hold many membrane-bound enzymes, among them those of drug oxidation.

Data set [2] can be described thus: Liver microsome stability, dog. The class given is in vitro ADME. The method, then:
as §1

Data set [3] in a line: Liver microsome stability, human. The data set is classed as in vitro ADME. The method, then:
as §1

The nature of data set [4]: Hepatocyte stability, mouse. The data set is classed as in vitro ADME, CD-1 mouse. The method, then: Human, Beagle dog, Sprague-Dawley rat, and CD-1 mouse cryopreserved hepatocytes were obtained from XenoTech and stored at −150° C. until use. The hepatocytes were thawed and prepared according to the vendor's instructions, pooled into Krebs Henseleit buffer (KHB, pH 7.4), and kept on ice prior to initiating an experiment. […] The reaction mixture was incubated in a shaking water bath at 37° C. Aliquots of the incubation solutions were sampled at 0, 15, 30, 60, and 120 minutes. The reaction was immediately terminated by the addition of three volumes of ice-cold acetonitrile containing 0.1% formic acid and internal standards. After centrifugation at 1640×g for 10 minutes, the supernatants were transferred into HPLC vials, and the test compound was analyzed by LC-MS/MS. Positive controls, testosterone (20 μM) and 7-hydroxycoumarin (100 μM), were performed in parallel to confirm the enzyme activities of the hepatocytes used.
Experimental half-lives were transformed to the corresponding intrinsic clearance values and subsequently scaled to predicted in vivo clearance values, using the well-stirred model as previously described (Houston, Biochemical Pharmacology 47(9): 1469-1479, 1994; Obach, Drug Metabolism and Disposition 27(11): 1350-1359, 1999), with appropriate species-specific scaling factors (Barter et al., Current Drug Metabolism 8(1): 33-45, 2007).

The nature of data set [5]: Plasma protein binding by equilibrium dialysis, mouse. As to conditions: male, CD-1, pH 7.4, read-out: Plasma free fraction. The data set is classed as in vitro ADME, CD-1 mouse. How it is done: (§2) Plasma protein binding was assessed by equilibrium dialysis, utilizing the HT-dialysis cell format with a cellulose semi permeable membrane (molecular weight cut off of 5000 Da). Plasma was warmed to 37° C. and adjusted to pH 7.4 before use. Male Sprague-Dawley rat, male Beagle dog, male CD-1 mouse and mixed sex human plasma was used for the studies. A 5 μM test compound solution was prepared in isotonic phosphate buffer and rat, dog, mouse and human plasma (final DMSO concentration of 0.5%). The plasma-containing solution was introduced to one side of the membrane, and the plasma-free on the other. Incubations were performed for 2-16 hours in duplicate in order to allow the compound to reach equilibrium. Haloperidol was included as the control compound for each species. At the end of the equilibration time the cells were emptied. Following protein precipitation, the samples were centrifuged and analyzed by LC-MS/MS. The samples from the protein containing compartment were quantified using calibration standards prepared in plasma and the protein free compartments were quantified using calibration standards prepared in dialysis buffer.
On the technique in general: In equilibrium dialysis free small molecules cross a membrane that holds back macromolecules.

Data set [6] in a line: Plasma protein binding by equilibrium dialysis, rat. The class given is in vitro ADME. As to conditions: male, Sprague-Dawley, pH 7.4, read-out: Plasma free fraction. How it is done:
as §2

A further data set is described as follows: Plasma stability, rat. The data set is classed as in vitro ADME. As to conditions: Sprague Dawley, pooled plasma, 37° C., read-out: Half-life in ex vivo blood plasma. The text has this: (§3) Samples were quenched in methanol and analyzed by LC-MS/MS analysis.
Another data set can be described thus: Plasma stability, human. The class given is in vitro ADME. As to conditions: pooled plasma, 37° C., read-out: Half-life in ex vivo blood plasma.
Excerpt: as §3

Data set [7] is described as follows: MDCK cell permeability, native cells. As to conditions: dog, Basolateral-to-apical. The data set is classed as in vitro ADME. How it is done: (§4) Samples were taken from the donor and receiver chambers at 120 minutes. Each determination was performed in duplicate. Co-dosed lucifer yellow flux was also measured for each monolayer to ensure cell monolayers remained intact during the incubation. All samples were assayed by LC-MS/MS.

In data set [8] the test system is MDR1-MDCK (P-glycoprotein) cells. The experiment in a line: MDCK cell permeability, MDR1-transfected cells. The data set is classed as in vitro ADME, dog. As to conditions: from relative efflux ratio, transfected vs native cells. The method, then:
as §4

A further data set relates to P-glycoprotein (MDR1). The experiment in a line: MDCK cell permeability, MDR1-transfected cells. The data set is classed as in vitro ADME, dog. The conditions noted are these: dog, 10 uM. How it is done:
as §4

A short description of data set [9]: Metabolite profiling in liver microsomes with NADPH and UDPGA, mouse. The class given is in vitro ADME. As to conditions: Compound A 10 μM, 20 min. How it is done:
(§5) Compound A was incubated with liver microsomes of various species (mouse, rat, dog or human). […] For all liver microsomal incubations, samples were taken at 0 and 20 minutes. All samples were quenched by using acetonitrile/methanol solution and analyzed using an LC-MS/MS Q-Trap system (AB Sciex, Framingham, Mass.).
(§6) The corresponding product ion tandem mass spectra of Compound A and its metabolites were obtained by using enhanced product ion (EPI) scans during positive ion electrospray. The possible chemical structures of the metabolites were deduced based on their MS1 and MS2 spectra.

The nature of data set [10]: Metabolite profiling in liver microsomes with NADPH and UDPGA, rat. The data set is classed as in vitro ADME. As to conditions: Compound A 10 μM, 20 min. The method, then:
as §5, §6

Data set [11] can be described thus: Metabolite profiling in liver microsomes with NADPH and UDPGA, human. The class given is in vitro ADME. The conditions noted are these: Compound A 10 μM, 20 min. The method, then: as §5, §6
The subject of data set [12] is MLL-rearranged leukemia xenograft. The conditions noted are these: cited from earlier work.
[13] abbreviates: liver microsomes, pH 7.4, NADPH, 3 μM.

The term microsomal CLint denotes a measure of how fast metabolising enzymes remove a compound, apart from limits set by blood flow. What is called hepatocyte CLint is a measure of how fast metabolising enzymes remove a compound, apart from limits set by blood flow. A word on the half-life: it is the time in which the quantity being followed falls by half. Usually Papp B→A stands for the apparent permeability from the basolateral to the apical side of a cell layer. Usually Papp A→B stands for the apparent permeability from the apical to the basolateral side of a cell layer. High values mean fast passage, low ones slow passage. `CC(C)N(C[C@H]1O[C@@H](n2cnc3c(N)ncnc32)[C@H](O)[C@@H]1O)[C@H]1C[C@@H](CCc2nc3cc(C(C)(C)C)ccc3[nH]2)C1` [Compound A, (2R,3R,4S,5R)-2-(6-amino-9H-purin-9-yl)-5-((((1r,3S)-3-(2-(5-(tert-butyl)-1H-benzo[d]imidazol-2-yl)ethyl)cyclobutyl)(isopropyl)amino)methyl)tetrahydrofuran-3,4-diol]: the figures for the intrinsic clearance (microsomal CLint) at 3 μM in data set [1] (setting [13]), in [2] (setting [13]) and in data set [3] (setting [13]) were 150 µL/min/mg, 39 µL/min/mg and 88 µL/min/mg, respectively. Besides, the “Scaled Hepatic CL from liver microsomes” value is given as 78 mL/min/kg in data set [1] (well-stirred model), 20 mL/min/kg in data set [2] (well-stirred model) and 17 mL/min/kg in data set [3] (well-stirred model). Also, in [4] (CD-1, mouse, cryopreserved hepatocytes in suspension, pH 7.4, mouse, 3 μM), the intrinsic clearance (hepatocyte CLint) at 3 μM is below 4 µL/min/1e6 cells. The “Scaled Hepatic CL from hepatocytes” value in data set [4] (mouse) turned out to be 26 mL/min/kg. For the same compound, the “Hepatocyte CLint” value in [4] (mouse, 3 μM) was determined as 3.5 uL/min/million cells. For the same compound, the fraction unbound at 5 μM in data set [5] came out at 0.138; in data set [6], 0.272. Further, the half-life at 1 μM in “Plasma stability, rat” was above 120 min; in “Plasma stability, human” it was above 120 min. Moreover, the basolateral-to-apical permeability (Papp B→A) at 120 min, 10 uM in data set [7] stood at 0.3 ×10⁻⁶ cm/s; in the data set with P-glycoprotein (MDR1) (MDCK - MDR1 transfected, Basolateral-to-apical), 0.22 ×10⁻⁶ cm/s. In addition, in data set [8], the “P-gp substrate (in words)” value is given as “not a substrate for P-gp”. The compound further displayed a Papp A→B at 120 min, 10 uM in the data set with P-glycoprotein (MDR1) (MDCK-MDR1, MDCK - MDR1 transfected, Apical-to-basolateral) below 0.1 ×10⁻⁶ cm/s. Also, the “Abundance based on UV spectra” value in data set [9] worked out at 25.4%; in [10] it was 59.4%; in [11], 59%. Besides, in [12] (continuous intravenous (IV) infusion, rat xenograft), the tumor response entry is “complete tumor regressions”. Besides, the “weight loss or signs of toxicity” value in data set [12] (rat, in vivo, iv) is on record as “no significant weight loss or signs of toxicity”.
